Assay results reported in article PMC11971462, “Generation and validation of a novel multitarget small molecule in glioblastoma” (Cell Death & Disease, 2025).

Columns and labels:
GNS179 cells = experiment: Immunofluorescence of pH3, Cleaved Caspase 3; assay type: cell-based, human; details: for pH3-positive cells: control […]
Experimental: Immunofluorescence assays were performed following standard procedures. Cells were seeded at a density of 2 × 10^4 cells/well in 8-well immunofluorescence chambers (LabTek Thermo) and incubated overnight before treating with increasing concentrations of DDI199. After 48 h, cells were fixed with 4% PFA. Primary antibodies against phosphohistone H3 (pH3) (ab14955, abcam), Cleaved Caspase 3 (AF385, R&D Systems), Ki67 (ab15580, abcam) and PARP1 (ab32064, abcam) were used. Secondary antibodies were Alexa Fluor anti-mouse (A21422, Invitrogen) and Alexa Fluor anti-rabbit (A31572, Invitrogen), and chromatin was stained with DAPI (D9541, Sigma-Aldrich). Axio Observer 7 epifluorescence microscope was used to take pictures, which were later quantified in Qupath.

recombinant hBChE = target: T1, recombinant hBChE (Homo sapiens, UniProt P06276); experiment: BChE inhibition and kinetics, Ellman's colorimetric method; assay type: biochemical
T1 construct: purchased Sigma-Aldrich
Experimental: (§1) Similarly, Ellman’s colorimetric method was used to study the inhibitory capacity of the compound on ChEs. Enzyme solution containing either recombinant hAChE (Sigma-Aldrich) at 0.5 U/mL or hBChE (Sigma-Aldrich) at 0.25 U/mL was incubated with inhibitor solution containing 10 µM of DDI199 or reference compound and 0.3 mM of DTNB (Sigma-Aldrich) for 20 minutes at 37 °C. […] In addition, kinetic of enzyme inhibition was also studied by repeating the same protocol and using five different concentrations of the substrate and four different concentrations of the inhibitor. Results were represented in a Lineweaver-Burk plot using GraphPad Prism software, and the constant of inhibition (Ki) was estimated from the point at which the line cuts the x-axis at the secondary plot.

U87-MG cells [1] = experiment: Subcutaneous U87-MG tumor growth, single treatment; assay type: in vivo, athymic nude-Foxn1nu mice; details: day 34, 100 µM intratumoral
Experimental: (§2) For tumor growth experiments, 5 × 10^5 U87-MG cells were subcutaneously injected into two bottom flanks of athymic nude-Foxn1^nu mice, and once tumors reached a size of 25-50 mm^3, mice were sorted into groups taking into account gender and tumor size. Afterwards, mice were intratumorally treated with vehicle, SAHA 100 µM or DDI199 100 µM following a schedule of 5 days on and 2 days off. In combined treatment, mice were treated intraperitoneally with 0.5 mg/Kg of TMZ for 5 days and intratumorally following a schedule of 5 days on and 2 days off with vehicle, SAHA 100 µM or DDI199 100 µM. After 4 weeks of treatment, some mice were kept for washout experiment, while the rest were sacrificed and tumors were extracted for immunohistochemistry and to disaggregate for reinjection and oncosphere formation studies. For reinjection assays, 1.5 × 10^5 cells were subcutaneously injected and tumor size was periodically measured. Once tumors reached end-point criteria, they were extracted for immunohistochemical analysis. An external caliper was used for tumor size measurement and the tumor volume was estimated using the formula V = L · W^2 · 0.5 (where L is tumor length and W is the tumor width).

[2] = system: gastric, pancreatic and lung cancer cells; experiment: MTT cell viability, summary for other tumor cells; assay type: cell-based; details: Homo sapiens, 72 h, summary statement
Experimental: (§3) MTT assay was used to study cell viability. For that, cells were seeded at a density of 1.5 × 10^3 cells/well in 96-well plates, incubated overnight and then treated with increasing concentrations of DDI199. After 72 h of treatment, MTT absorbance was measured at 570 nm. GraphPad Prism software was used to analyze results and calculate IC50 values.

[3] = In vivo toxicity assay (body weight, organ macroscopy); parameters: species or system athymic nude-Foxn1nu mice; details: intraperitoneal 15 mg/mL, 5 times per week for 4 weeks
Experimental: 15 mg/mL of DDI199 or vehicle (DMSO) were intraperitoneally injected in athymic nude-Foxn1^nu mice following a schedule of 5 days on and 2 days off and changes in body weight were measured to assess the potential toxicity of the MSM. At the end-point macroscopic analysis of the different organs was done.

U87-MG cells [4] = experiment: Washout experiment after treatment; assay type: in vivo, athymic nude-Foxn1nu mice
Experimental: as §2

U87-MG cells [5] = experiment: Cell viability with TMZ and DDI199 alone or combined; assay type: cell-based, human; details: 72 h
Experimental: as §3

U87-MG tumor cells = experiment: Re-injection (regrowth) of cells from treated tumors; assay type: in vivo, athymic nude-Foxn1nu mice
Experimental: as §2

U87-MG cells [6] = experiment: Subcutaneous U87-MG tumor growth, combined treatment with TMZ; assay type: in vivo, athymic nude-Foxn1nu mice
Experimental: as §2

U87-MG cells [7] = experiment: Western blot of HDAC6, HDAC1, acetyl α-tubulin, acetyl H3; assay type: cell-based, human
Experimental: (§4) Protein lysates were resolved using sodium dodecyl sulfate-polyacrylamide gel electrophoresis. Primary antibodies against HDAC1 (Ab109411, abcam), HDAC6 (7558S, Cell Signaling), acetyl H3 (9649, Cell Signaling), acetyl α-tubulin (Ab24610, abcam), acetylated-Lysine (9441, Cell Signaling) and β-actin (A5441, Sigma-Aldrich) were used. Membranes were then incubated with the corresponding anti-rabbit (7074S, Cell Signaling) or anti-mouse (7076S, Cell Signaling) secondary antibody conjugated to horseradish peroxidase (HRP), and NOVEX ECL Chemi Substrate (ThermoFisher) or SuperSignal West Femto Maximum Sensitivity Substrate (ThermoFisher) was used for protein detection by iBright imaging system.

GNS166 cells = experiment: as above; assay type: cell-based, human; details: U87-MG and glioma stem cells (GNS166)
Experimental: as §4

recombinant hAChE = target: T2, recombinant hAChE (Homo sapiens, UniProt P22303); experiment: AChE inhibition, Ellman's colorimetric method; assay type: biochemical; details: 10 µM compound; read-out: AChE inhibition percentage
T2 construct: purchased Sigma-Aldrich
Experimental: as §1

[8] = TMZ 0.5 mg/kg ip + DDI199 100 µM intratumoral

T1 sequence (P06276 29-602): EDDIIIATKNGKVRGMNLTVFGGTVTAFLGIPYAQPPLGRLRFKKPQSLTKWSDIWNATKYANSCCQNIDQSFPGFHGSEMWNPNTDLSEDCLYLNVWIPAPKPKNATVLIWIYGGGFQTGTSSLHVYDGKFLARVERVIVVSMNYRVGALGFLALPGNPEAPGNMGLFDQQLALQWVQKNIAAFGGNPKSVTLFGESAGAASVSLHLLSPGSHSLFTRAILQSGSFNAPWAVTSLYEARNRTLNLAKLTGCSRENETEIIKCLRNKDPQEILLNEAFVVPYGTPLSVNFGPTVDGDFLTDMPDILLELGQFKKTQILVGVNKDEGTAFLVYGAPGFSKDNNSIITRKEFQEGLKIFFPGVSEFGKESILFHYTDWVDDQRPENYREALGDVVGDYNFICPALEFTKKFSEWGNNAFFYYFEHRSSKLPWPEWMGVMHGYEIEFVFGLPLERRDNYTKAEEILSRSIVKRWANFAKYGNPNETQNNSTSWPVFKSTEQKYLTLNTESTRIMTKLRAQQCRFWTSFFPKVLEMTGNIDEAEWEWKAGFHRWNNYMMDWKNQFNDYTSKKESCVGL
T2 sequence (P22303 32-614): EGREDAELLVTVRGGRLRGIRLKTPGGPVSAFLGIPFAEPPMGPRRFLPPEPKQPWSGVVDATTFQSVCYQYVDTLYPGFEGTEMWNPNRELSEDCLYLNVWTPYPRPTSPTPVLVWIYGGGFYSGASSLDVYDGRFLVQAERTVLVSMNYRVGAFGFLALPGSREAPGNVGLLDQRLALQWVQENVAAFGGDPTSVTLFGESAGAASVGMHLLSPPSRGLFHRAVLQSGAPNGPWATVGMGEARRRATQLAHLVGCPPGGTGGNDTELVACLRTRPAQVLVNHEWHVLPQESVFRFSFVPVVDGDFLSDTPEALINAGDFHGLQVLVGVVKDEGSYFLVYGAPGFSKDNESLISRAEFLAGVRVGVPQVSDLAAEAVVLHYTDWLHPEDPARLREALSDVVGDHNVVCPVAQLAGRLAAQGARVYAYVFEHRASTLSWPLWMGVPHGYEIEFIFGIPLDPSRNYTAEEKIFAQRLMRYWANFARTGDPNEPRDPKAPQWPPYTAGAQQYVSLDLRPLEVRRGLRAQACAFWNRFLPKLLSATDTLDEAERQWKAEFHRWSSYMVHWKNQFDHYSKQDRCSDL

C#CCN(Cc1cc2cc(OCCCN3CCCCC3)ccc2n1S(=O)(=O)c1ccccc1)C(=O)CCCCCCC(=O)NO [DDI199]
pH3-positive cells (GNS179 cells; GNS179, 1 µM): 2.4%
pH3-positive cells (GNS179 cells; GNS179, 5 µM): 0.8%
pH3-positive cells (GNS179 cells; GNS179, 10 µM): 0.11%
Cleaved Caspase-3-positive cells (GNS179 cells; GNS179, 1, 5 and 10 µM): increase
IC50 (recombinant hBChE): 2.54 µM
inhibition at 10 µM (recombinant hBChE; 10 µM compound, read-out: BChE inhibition percentage): 75%
BChE type of inhibition (recombinant hBChE; Lineweaver-Burk plot): mixed inhibition
Ki (recombinant hBChE; from Lineweaver-Burk and secondary plots): 0.87 µM
Reduction in tumor growth versus controls (U87-MG cells [1]): ~50%
Tumor weight at end-point (U87-MG cells [1]): significantly lower than the controls and also of SAHA
Mean final tumor volume (U87-MG cells [1]; 5 days on 2 days off, controls 800 mm^3): 465 mm^3
IC50 [2]: < 3 µM
Body weight of animals compared to controls [3]: did not significantly affect the body weight
Macroscopic analysis of organs at end-point [3]: did not observe any difference
Survival in washout experiment, combined with TMZ (U87-MG cells [4]; TMZ + DDI199 versus control, TMZ alone and TMZ plus SAHA): extended survival
Time to end-point volume after washout (U87-MG cells [4]; after 4 weeks treatment, controls 10 days): 20 days
Survival in washout experiment (U87-MG cells [4]; compared to controls and SAHA (p = 0.05)): significantly longer survival
Cytotoxicity in combination with TMZ (U87-MG cells [5]; 0.5 µM DDI199 + 250 µM TMZ): over 70%
Cell viability, single agent (U87-MG cells [5]; 250 µM TMZ or 0.5 µM DDI199 alone): reduced cell viability
Tumors reforming after re-injection, combined with TMZ (U87-MG tumor cells; cells from TMZ + DDI199 treated tumors): 1 tumor out of 3
Reduction of final tumor weight after re-injection versus control (U87-MG tumor cells; cells from treated tumors): ~70%
Reduction of tumor volume after re-injection versus control (U87-MG tumor cells; cells from treated tumors): 60%
Mean tumor volume after re-injection (U87-MG tumor cells; cells from treated tumors, controls over 500 mm^3): 200 mm^3
Mean tumor volume, combined with TMZ (U87-MG cells [6]; TMZ 0.5 mg/kg ip 5 days + 100 µM intratumoral, end-point, controls 600 mm^3): 115 mm^3
Reduction in final tumor volume versus TMZ + SAHA, combined with TMZ (U87-MG cells [6]; [8]): ~70%
Reduction in final tumor volume versus controls, combined with TMZ (U87-MG cells [6]; [8]): 80%
Reduction in tumor volume versus TMZ alone, combined with TMZ (U87-MG cells [6]; [8]): 70%
Reduction in tumor weight versus TMZ + SAHA, combined with TMZ (U87-MG cells [6]; [8]): 47%
Reduction in tumor weight versus TMZ alone, combined with TMZ (U87-MG cells [6]; [8]): 65%
Reduction in tumor weight versus controls, combined with TMZ (U87-MG cells [6]; [8]): 65%
acetylated H3 level (U87-MG cells [7]; U87-MG, 0.5, 1 and 10 µM): increased their levels with increasing concentrations
acetylated α-tubulin level (U87-MG cells [7]; U87-MG, 0.5, 1 and 10 µM): increased their levels with increasing concentrations
HDAC1 protein level (U87-MG cells [7]; U87-MG, western blot): decrease
HDAC6 protein level (U87-MG cells [7]; U87-MG, western blot): did not alter
acetylated α-tubulin and acetylated H3 versus reference inhibitors (GNS166 cells): higher acetylated α-tubulin and acetylated H3 increase than SAHA and Tubastatin A
inhibition at 10 µM (recombinant hAChE): 25%
